Measured values as given in PMC10724190, “Phytochemical screening and biological evaluation of Greek sage (Salvia fruticosa Mill.) extracts” (Scientific Reports, 2023).

Experiments:
[1] = target: microbial XO (xanthine oxidase); assay: Xanthine oxidase inhibitory activity, HPLC-PAD monitoring of uric acid formation; type: biochemical; conditions: for IC50, mass of standard or dry weight of sample capable of reducing XO activity to 50%: 15 min preincubation, 60 min at 25 °C, xanthine substrate; for IC50: read-out: IC50 of XO inhibition as concentration
Protocol: The transformation of xanthine (substrate) to uric acid (product) by XO with or without the presence of tested samples was monitored with the use of HPLC-PAD at 285 nm (Fig. 3a). The enzyme activity was calculated as the percentage of the uric acid peak area formed in the presence of the tested sample compared to the control without the addition of the sample (Fig. 3b). The inhibition of the XO enzyme was expressed as an IC50 value, meaning the mass of standard or dry weight of sample (μg) capable of reducing enzyme activity to 50% (Fig. 3b,c).
The ability of – caffeic acid, carnosic acid, carnosol, rosmarinic acid, salvianolic acid B and scutellarin, as well as S. fruticosa extracts – to inhibit XO was determined. The stock solutions of xanthine (substrate) and uric acid (product) (1.5 mM) were prepared in an NaOH aqueous solution (1 M). The working solutions of these compounds (150 μM) were prepared by dilution of stock solutions with a phosphate buffer (10 mM, pH 7.7). An enzyme solution with an activity of approximately 0.5 U/mL was prepared in the same phosphate buffer. The same buffer was also used to dilute stock solutions of phytochemical standards and S. fruticosa extracts. The diluted samples with different concentrations of standard or plant extract (85 µL) were mixed with an XO solution (30 µL) and preincubated for 15 min at 25 °C, followed by the addition of 60 µL of a 150 µM xanthine solution (substrate). The mixtures were incubated for 60 min at 25 °C, then 25 µL of HCl solution (1 M) was added to stop the enzymatic reaction.
The samples were analyzed using an HPLC-PAD system (1200 series, Agilent Technologies, Wilmington, DE, USA) equipped with a Kinetex® column (150 × 4.6 mm, 5 µm, Phenomenex). A two-component mobile phase was used, in which component A was water acidified with formic acid (1%) and component B was methanol. The mobile phase was pumped at flow rate of 1 mL/min according to the gradient elution program: 0 min – 100% A, 8 min – 18% B, 12 min – 80% B, 18 min – 100% B and finally, the initial conditions were held for 5 min as a re-equilibration step. The injection volume was 30 μL. The inhibition of the XO enzyme was expressed as an IC50 value, meaning the mass of standard or dry weight of the sample (μg) that could reduce enzyme activity to 50%. Enzyme activity was calculated as the percentage of the uric acid peak area (RT 3.1 min) that was formed in the presence of extracts compared to the control sample without the addition of extracts.

[2] = Total antioxidant activity, ABTS, DPPH and F–C tests taken together; conditions: reference antioxidant trolox
Protocol: The presented study compared the results of the three most popular spectrophotometric tests using ABTS, DPPH and Folin–Ciocalteu (F–C) reagents. ABTS and DPPH assays are used widely to determine free radical scavenging activity of extracts, as are pure compounds. For S. fruticosa extracts, the calculated antioxidant activity describes the number of ABTS or DPPH molecules reduced by antioxidants derived from 1 g of dried material after 10 min of reaction. These values were calculated in the linear range of the method and expressed as the slope of the line describing the relationship between the number of reduced millimoles of oxidants and various amounts of tested samples – as grams of dry matter in reaction mixtures (Fig. 2b).
The study also includes the method with the Folin–Ciocalteu reagent. It consists in the transfer of electrons in an alkaline environment from compounds with active hydroxyl groups to phosphomolybdic phosphotungstic acid complexes. The reducing capacity in this case was expressed as the number of millimoles of gallic acid equivalents, that formed blue complex and were derived from 1 g of dry matter of the plant. […]
The antioxidant activity of – caffeic acid, carnosic acid, carnosol, rosmarinic acid, salvianolic acid B, scutellarin and S. fruticosa extracts – was determined by spectrophotometric tests using ABTS, DPPH and Folin–Ciocalteu (F–C) reagents. […] For tests with radicals, the data were used to generate a plot of linear dependence between the different content of tested standards or S. fruticosa samples calculated as gram of dry weight present in the reaction mixtures and the number of scavenged millimoles of ABTS or DPPH radical. […] For the F–C test the results were calculated using the calibration curve of gallic acid. The antioxidant activity of the tested samples was expressed as a slope of the line that represents the relationship between the mass of standards or plant material [g] and amount of gallic acid equivalents [mmol] present in reaction mixtures after 60 min.

IC50 [1] | Molecule | IC50, mass of standard or dry weight of sample capable of reducing XO activity to 50% [1] | Antioxidant activity compared with trolox [2]
2.8 µM | O=C(O)/C=C/c1ccc(O)c(O)c1 [Caffeic acid] | 0.1 µg | more efficient than trolox
43.8 µM | O=C(/C=C/c1ccc(O)c(O)c1)O[C@H](Cc1ccc(O)c(O)c1)C(=O)O [rosmarinic acid, Rosmarinic acid] | – | more efficient than trolox
– | Salvianolic acid B | – | more efficient than trolox

Molecule | IC50 [1] | IC50, mass of standard or dry weight of sample capable of reducing XO activity to 50% [1] | Antioxidant activity compared with trolox [2]
Oc1ncnc2[nH]ncc12 [allopurinol] | 5.5 µM | 0.15 µg | –
